Data: patent US9173972B2, “Methods and compositions for promoting wound healing” (priority 2005, dated 2015)

Tests used:
[1] = system: surface ulcers of Koi (multiple antibiotic-resistant pathogenic species); assay: Immersion bath treatment of Koi suffering from surface ulcers; format: in vivo, Koi (Cyprinus carpio); conditions: antibiotic injected directly into the fish, before the bath treatment
Experimental: An immersion treatment of the infected animals of 5 to 10 minutes on alternate days over a six day period promoted healing of most ulcers.
All of the treated fish had previously been given injections of Azactam, Baytril, and Amikacin. […] Among the species of bacteria found in the ulcers of the fish were representatives of the genera Aeromonas, Proteus, Klebsiella, Staphylococcus, Streptococcus, Enterobacter and Flavobacterium.
All fish were housed in a communal “hospital tank” before treatment and moved to an isolation tank after each treatment. The temperature of the bath was adjusted to that of the hospital tank temperature, 24 C, and adequate aeration was supplied to the treatment tank. Eight of the fish had external ulcers of various dimensions. Two of the fish were dropsied.

Staphylococcus aureus = assay: MIC/MBC microtiter dilution and checkerboard of EDTA-Tris and neomycin; format: cell-based
Experimental: (§1) This example describes a method for determining the FIC values set forth in Example 4. […] Agents and Chem. pp. 210-217 (1967); and Sparks et al., Vet. Res. Comm. 18:241-249 (1994). Each of the foregoing publications are incorporated herein by reference.
(§2) Then 0.05 ml of an 18-hour old culture of a test organism, containing […] colony-forming units (CFU) ml, were added to each well. Controls for the culture and media were included in each plate. Plates were covered and incubated at 37° C. for 18-24 hours.
(§3) To generate isobolograms, FICs of the two test solutions were plotted individually on the x-axis and y-axis to determine the effect of combining the two test solutions on bacterial growth. A line that curves away from the zero point and the coordinates indicated antagonism. […] Goodman and Gilman, pp. 1085-1086 (Macmillan Publishing Co., New York, 1985); Sabath, L. D., Antimicrob. Agents and Chem. pp. 210-217 (1967) and incorporated herein by reference in their entireties.
(§4) 307 (pub: Am. Soc. Microbiol. Williams and Wilkins, Baltimore 1970), incorporated herein by reference in its entirety.

Pseudomonas aeruginosa [2] = assay: as above; format: cell-based
Experimental: as §1, §2, §3, §4

Enterococcus faecalis = assay: as above; format: cell-based
Experimental: as §1, §2, §3, §4

Aeromonas caviae = assay: MIC and FIC of EDTA and neomycin, Aeromonas isolated from ulcerated fish; format: cell-based; conditions: A. caviae; EDTA in 50 mM Tris
Experimental: (§5) This example describes a method for determining the FIC values set forth in Example 4. […] Agents and Chem. pp. 210-217 (1967); and Sparks et al., Vet. Res. Comm. 18:241-249 (1994). Each of the foregoing publications are incorporated herein by reference. […] Then 0.05 ml of an 18-hour old culture of a test organism, containing […] colony-forming units (CFU) ml, were added to each well. Controls for the culture and media were included in each plate. Plates were covered and incubated at 37° C. for 18-24 hours. A numerical score or Fractional Inhibitory Concentration (FIC) index was determined. The FIC index is equal to the sum of the values of FIC for the individual drugs: An FIC index greater than 1.0 indicated an antagonistic interaction, an FIC index of 1.0 indicated addition, and an FIC index of less than or equal to 0.5 indicated synergism between the two test agents.

Aeromonas sobria = assay: as above; format: cell-based; conditions: A. sobria; EDTA in 50 mM Tris
Experimental: as §5

[3] = system: Pseudomonas aeruginosa isolated from burn patients; assay: Antibiotic resistance profile, disc diffusion method; also: key: R = resistant; I = intermediate; S = sensitive; format: cell-based; conditions: P. aeruginosa
[4] = system: Enterococcus faecalis isolated from burn patients; assay: as above; format: cell-based; conditions: E. faecalis; also: key: R = resistant; I = intermediate; S = sensitive
[5] = system: Staphylococcus aureus isolated from burn patients; assay: as above; format: cell-based; conditions: S. aureus; also: key: R = resistant; I = intermediate; S = sensitive
[6] = system: Pseudomonas aeruginosa isolated from a human burn patient; assay: MIC and MBC of Tris, EDTA, cocamidopropyl betaine and silver combinations; format: cell-based; conditions: P. aeruginosa (human burn isolate); multiple of the 1x stock solution of the tested composition
[7] = system: Escherichia coli isolated from a dog with otitis externa; assay: MIC and MBC, isolates from dogs with otitis externa and pyoderma; format: cell-based; conditions: E. coli
Experimental: (§6) The formulation was tested against Pseudomonas aeruginosa, Proteus mirabilis, Escherichia coli, Staphylococcus intermedius, Malessezia pachydermatis, and Candida albicans.

Pseudomonas aeruginosa [8] = assay: as above; format: cell-based; conditions: P. aeruginosa (dog isolate); multiple of the 1x stock solution of the tested composition
Experimental: as §6

Malassezia pachydermatis = assay: as above; format: cell-based; conditions: M. pachydermatis; multiple of the 1x stock solution of the tested composition
Experimental: as §6

[9] = system: Staphylococcus intermedius; assay: as above; format: cell-based; conditions: S. intermedius; multiple of the 1x stock solution of the tested composition
Experimental: as §6

Proteus mirabilis = assay: as above; format: cell-based; conditions: P. mirabilis; multiple of the 1x stock solution of the tested composition
Experimental: as §6

Candida albicans = assay: as above; format: cell-based; conditions: C. albicans; multiple of the 1x stock solution of the tested composition
Experimental: as §6

[10] = system: Staphylococcus aureus isolated from a human burn patient; assay: MIC and MBC of Tris, EDTA, cocamidopropyl betaine and silver combinations; format: cell-based; conditions: S. aureus (human burn isolate); multiple of the 1x stock solution of the tested composition
[11] = EDTA co-administered with neomycin in 50 mM Tris
[12] = multiple of the 1x stock solution of the tested composition
[13] = neomycin co-administered with EDTA in 50 mM Tris

NCC[C@H](O)C(=O)N[C@@H]1C[C@H](N)[C@@H](O[C@H]2O[C@H](CN)[C@@H](O)[C@H](O)[C@H]2O)[C@H](O)[C@H]1O[C@H]1O[C@H](CO)[C@@H](O)[C@H](N)[C@H]1O [Amikacin] was tested, and the “healing of visible ulcers” value [1] was “failed to heal visible ulcers”.
For C[C@H]1[C@H](NC(=O)/C(=N\OC(C)(C)C(=O)O)c2csc(N)n2)C(=O)N1S(=O)(=O)O [Azactam], the “healing of visible ulcers” value [1] was “failed to heal visible ulcers”.
CCN1CCN(c2cc3c(cc2F)c(=O)c(C(=O)O)cn3C2CC2)CC1 [Baytril] was tested, and the “healing of visible ulcers” value [1] was “failed to heal visible ulcers”.
In the case of O=C(O)CN(CCN(CC(=O)O)CC(=O)O)CC(=O)O [EDTA, ethylenediaminetetraacetate], the “MBC, Co-administered” value (Staphylococcus aureus; [11]) is reported as 3.9 mM, the “MBC, Individually Administered” value (Pseudomonas aeruginosa [2]; EDTA alone in 50 mM Tris) is reported as 250 mM and the “MBC, Co-administered” value (Pseudomonas aeruginosa [2]; [11]) is reported as 20.0 mM. For the same compound, the “MBC, Individually Administered” value (Enterococcus faecalis; EDTA alone in 50 mM Tris) was 250 mM, the “MBC, Co-administered” value (Enterococcus faecalis; [11]) was 62.5 mM and the “MIC, EDTA alone” value (Aeromonas caviae) was <0.49. The “MIC, EDTA alone” value (Aeromonas sobria) was 15.6.
In the case of CN[C@H](CC(C)C)C(=O)N[C@H]1C(=O)N[C@@H](CC(N)=O)C(=O)N[C@H]2C(=O)N[C@H]3C(=O)N[C@H](C(=O)N[C@H](C(=O)O)c4cc(O)cc(O)c4-c4cc3ccc4O)[C@H](O)c3ccc(c(Cl)c3)Oc3cc2cc(c3O[C@@H]2O[C@H](CO)[C@@H](O)[C@H](O)[C@H]2O[C@H]2C[C@](C)(N)[C@H](O)[C@H](C)O2)Oc2ccc(cc2Cl)[C@H]1O [Va, vancomycin], the Antibiotic resistance profile [3] is reported as “R”, the Antibiotic resistance profile [4] is reported as “R” and the Antibiotic resistance profile [5] is reported as “S”.
For cocamidopropyl betaine, the MBC [6] was 0.5x, the MIC [6] was 0.25x and the MBC [7] was 50% of stock solution. For the same compound, the MIC [7] was 25% of stock solution, the MBC [7, 12] was 0.5x and the MIC [7, 12] was 0.25x. The MBC (Pseudomonas aeruginosa [8]) was 0.5x, the MIC (Pseudomonas aeruginosa [8]) was 0.25x and the MBC (Malassezia pachydermatis) was 0.003x. The MIC (Malassezia pachydermatis) was 0.001x, the MBC [9] was 0.001x and the MIC [9] was 0.001x. It also gave an MBC (Proteus mirabilis) of 0.5x, an MIC (Proteus mirabilis) of 0.25x and an MBC (Candida albicans) of 0.003x. For the same compound, the MIC (Candida albicans) was 0.001x, the MBC [10] was 0.001x and the MIC [10] was 0.001x.
With gentamicin [GM] the Antibiotic resistance profile [3] was “I”, the Antibiotic resistance profile [4] was “R” and the Antibiotic resistance profile [5] was “S”.
For neomycin, the “MBC, Co-administered” value (Staphylococcus aureus; [13]) was 1560 µg/mL, the “MBC, Individually Administered” value (Pseudomonas aeruginosa [2]; neomycin alone in 50 mM Tris) was 5000 µg/mL and the “MBC, Co-administered” value (Pseudomonas aeruginosa [2]; [13]) was 40 µg/mL. For the same compound, the “MBC, Individually Administered” value (Enterococcus faecalis; neomycin alone in 50 mM Tris) was 25000 µg/mL, the “MBC, Co-administered” value (Enterococcus faecalis; [13]) was 6250 µg/mL and the Antibiotic resistance profile [3] was “R”. The Antibiotic resistance profile [4] was “R” and the Antibiotic resistance profile [5] was “R”.
oxacillin/methicillin was tested, and the Antibiotic resistance profile [3] was “R”, the Antibiotic resistance profile [4] was “R” and the Antibiotic resistance profile [5] was “R”.
